The values below come from patent US10131648B2, “Substituted benzothiophenyl derivatives as GPR40 agonists for the treatment of type II diabetes” (Janssen Pharmaceutica NV, priority 2014, dated 2018).

In one assay the target is human GPR40 (Homo sapiens (Human), UniProt O14842). The assay is described as follows: GPR40 Calcium Flux Assay. It is filed as cell-based. The following applies: transfected HEK293 cells stably expressing human GPR40; Ca2+ mobilization; mean data; read-out: hGPR40 Ca^2+ Assay EC50. A general note: Calcium flux is commonly read through the fluorescence of an indicator in the cells.

For a further assay, the system named is Male SD rats. The assay is described as follows: Oral Glucose Tolerance Test. The class given is in vivo, rat. Particulars: 10 mg/kg, thirty to forty min prior to oGTT (glucose, 2 g/kg, po), blood glucose AUC t=0 to t=120 minutes. How it is done:
Male SD rats (200-250 g) were housed 2 per cage in a temperature-controlled room with a 12-hour light/dark cycle. They were allowed ad libitum access to water and fed with normal rodent chow. The night before the oral glucose tolerance test (oGTT), the rats were transferred to clean cages and fasted overnight. On the morning of the oGTT, the rats were weighed and randomized into groups based on fasted blood glucose and body weight. Rats were dosed with vehicle (0.5% methocel) or compounds (10 mg/kg, po) thirty to forty min prior to the oGTT (glucose, 2 g/kg, po). Blood was collected from the tail vein at 0, 10, 30, 60 and 120 minutes after glucose challenge to measure blood glucose; plasma was used to determine insulin levels. The area under the curve for blood glucose excursion was calculated from t=0 to t=120 minutes. Percent lowering of glucose was calculated from the AUC data with respect to the vehicle-treated group.

Sequence of human GPR40 (O14842 whole entry): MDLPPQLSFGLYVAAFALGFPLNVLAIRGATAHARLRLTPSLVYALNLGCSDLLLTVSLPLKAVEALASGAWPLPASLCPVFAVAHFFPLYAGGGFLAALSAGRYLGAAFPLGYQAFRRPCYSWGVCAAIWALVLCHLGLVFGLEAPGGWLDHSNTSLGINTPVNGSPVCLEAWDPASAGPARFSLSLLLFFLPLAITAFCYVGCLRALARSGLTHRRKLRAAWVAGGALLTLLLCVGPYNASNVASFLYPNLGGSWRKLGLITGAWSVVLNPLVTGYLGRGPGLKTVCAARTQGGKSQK

As for `CC#C[C@@H](CC(=O)O)c1ccc(OCc2ccc3scc(-c4ccc(OCCOC)cc4C)c3c2)cc1` [Cpd 16, (3S)-3-(4-((3-(4-(2-Methoxyethoxy)-2-methylphenyl)benzo[b]thiophen-5-yl)methoxy)phenyl)hex-4-ynoic acid], the EC50 (usually the concentration giving half of the maximal effect) at human GPR40 came to 5 nM. Further, the “Percent Lowering of Glucose (AUC compound vs. AUC Vehicle)” value in the assay with Male SD rats is 76%.

Consider `CC#C[C@@H](CC(=O)O)c1ccc(OCc2ccc3scc(-c4ccccc4C)c3c2)cc1` [Cpd 2, (3S)-3-[4-[[3-(2-Methylphenyl)benzo[b]thiophen-5-yl]methoxy]phenyl]hex-4-ynoic acid], for which the EC50 on human GPR40 was determined as 5 nM. Besides, the “Percent Lowering of Glucose (AUC compound vs. AUC Vehicle)” value in the assay with Male SD rats came to 72%.

Consider `CC#C[C@@H](CC(=O)O)c1ccc(OCc2ccc3scc(-c4cccnc4C)c3c2)cc1` [Cpd 22, (3S)-3-(4-((3-(2-Methylpyridin-3-yl)benzo[b]thiophen-5-yl)methoxy)phenyl)hex-4-ynoic acid], for which the EC50 on human GPR40 was 8 nM.

For the compound `CC#C[C@@H](CC(=O)O)c1ccc(COc2ccc3scc(-c4ccccc4C)c3c2)cc1` [Cpd 23, (3S)-3-(4-(((3-(2-Methylphenyl)benzo[b]thiophen-5-yl)oxy)methyl)phenyl)hex-4-ynoic acid], the concentration for a half-maximal effect (EC50) at human GPR40 is 10 nM.

As to `CC#C[C@@H](CC(=O)O)c1ccc(OCc2ccc3scc(-c4ccc(OCCC5(O)CC5)cc4C)c3c2)cc1` [Cpd 11, (3S)-3-(4-((3-(4-(2-(1-Hydroxycyclopropyl)ethoxy)-2-methylphenyl)benzo[b]thiophen-5-yl)methoxy)phenyl)hex-4-ynoic acid], the EC50 at human GPR40 came out at 16 nM.

Consider `CC#C[C@@H](CC(=O)O)c1ccc(OCc2ccc3scc(-c4ccc(OCCCS(C)(=O)=O)cc4C)c3c2)cc1` [Cpd 4, (3S)-3-[4-[[3-[2-Methyl-4-(3-methylsulfonylpropoxy)phenyl]benzo[b]thiophen-5-yl]methoxy]phenyl]hex-4-ynoic acid], for which the EC50 on human GPR40 turned out to be 3 nM.

Take `CC#C[C@@H](CC(=O)O)c1ccc(COc2ccc3scc(-c4ccc(OC5CCOCC5)cc4C)c3c2)cc1` [Cpd 57, (3S)-3-[4-[([3-[2-Methyl-4-(oxan-4-yloxy)phenyl]-1-benzothiophen-5-yl]oxy)methyl]phenyl]hex-4-ynoic acid]: on human GPR40, the EC50 was 17 nM.

On to `CC#C[C@H](CC(=O)O)c1ccc(OCc2ccc3scc(-c4ccccc4C)c3c2)cc1` [Cpd 98, (3R)-3-[4-[[3-(2-Methylphenyl)benzo[b]thiophen-5-yl]methoxy]phenyl]hex-4-ynoic acid], for which the EC50 at human GPR40 was 160 nM.
